Test results as given in PubChem BioAssay AID248 (DTP/NCI, 2004).
Values joined by “and” are separate entries in the source; they are usually repeats but may differ in a detail not shown here. Identical values can stand only once. Inconclusive results and toxic doses are left out. Rule as the data show it: active = T/C of 150% or more; inactive = T/C below 125%.

Test system: L1210 leukemia ip in BDF1 mice, survival T/C
Test: NCI In Vivo Anticancer Drug Screen. Data for tumor model L1210 Leukemia (intraperitoneal) in B6D2F1 (BDF1) mice
Details: endpoint: mean survival time, higher = longer survival
Outline: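 Transplanted-tumor mice were given test agent; controls received vehicle only. Survival readings from the two groups were divided (treated over control).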

[1] = dose: 100.0 mg/kg/injection, schedule: Q01DX009 (ip), vehicle: saline with Tween-80
[2] = dose: 100.0 mg/kg/injection, schedule: Q04DX002 (ip), vehicle: saline with Tween-80
[3] = dose: 100.0 mg/kg/injection, schedule: Q04DX003 (ip), vehicle: saline with Tween-80
[4] = dose: 200.0 mg/kg/injection, schedule: Q01DX009 (ip), vehicle: saline with Tween-80
[5] = dose: 200.0 mg/kg/injection, schedule: Q04DX002 (ip), vehicle: saline with Tween-80
[6] = dose: 400.0 mg/kg/injection, schedule: Q01DX009 (ip), vehicle: saline with Tween-80
[7] = dose: 400.0 mg/kg/injection, schedule: Q04DX002 (ip), vehicle: saline with Tween-80
[8] = dose: 400.0 mg/kg/injection, schedule: Q04DX003 (ip), vehicle: saline with Tween-80
[9] = dose: 100.0 mg/kg/injection, schedule: Q01DX009 (ip), vehicle: Klucel (hydroxypropylcellulose) (HPC)
[10] = dose: 200.0 mg/kg/injection, schedule: Q01DX009 (ip), vehicle: Klucel (hydroxypropylcellulose) (HPC)
[11] = dose: 400.0 mg/kg/injection, schedule: Q01DX009 (ip), vehicle: Klucel (hydroxypropylcellulose) (HPC)
[12] = dose: 50.0 mg/kg/injection, schedule: Q01DX009 (ip), vehicle: Klucel (hydroxypropylcellulose) (HPC)
[13] = dose: 100.0 mg/kg/injection, schedule: Q01DX001 (ip), vehicle: saline
[14] = dose: 100.0 mg/kg/injection, schedule: Q04DX002 (ip), vehicle: Klucel (hydroxypropylcellulose) (HPC)
[15] = dose: 200.0 mg/kg/injection, schedule: Q04DX002 (ip), vehicle: Klucel (hydroxypropylcellulose) (HPC)
[16] = dose: 400.0 mg/kg/injection, schedule: Q04DX002 (ip), vehicle: Klucel (hydroxypropylcellulose) (HPC)
[17] = dose: 200.0 mg/kg/injection, schedule: Q01DX001 (ip), vehicle: saline
[18] = dose: 400.0 mg/kg/injection, schedule: Q01DX001 (ip), vehicle: saline
[19] = dose: 100.0 mg/kg/injection, schedule: Q04DX003 (ip), vehicle: Klucel (hydroxypropylcellulose) (HPC)
[20] = dose: 200.0 mg/kg/injection, schedule: Q04DX003 (ip), vehicle: Klucel (hydroxypropylcellulose) (HPC)
[21] = dose: 400.0 mg/kg/injection, schedule: Q04DX003 (ip), vehicle: Klucel (hydroxypropylcellulose) (HPC)

Measured: T/C

Cc1ccc(Cl)cc1NC(=O)Nc1cc(Cl)c(Cl)cc1C
inactive: dose: 50.0 mg/kg/injection, schedule: Q04DX003 (ip), vehicle: saline with Tween-80 94 % of control and 88 % of control | dose: 100.0 mg/kg/injection, schedule: Q01DX001 (ip), vehicle: saline with Tween-80 100 % of control | [1] 95 % of control and 97 % of control | [2] 95 % of control and 106 % of control | [3] 96 % of control | dose: 200.0 mg/kg/injection, schedule: Q01DX001 (ip), vehicle: saline with Tween-80 86 % of control | [4] 93 % of control and 97 % of control | [5] 97 % of control and 88 % of control | dose: 400.0 mg/kg/injection, schedule: Q01DX001 (ip), vehicle: saline with Tween-80 89 % of control | [6] 98 % of control and 105 % of control | [7] 101 % of control and 92 % of control | [8] 95 % of control and 88 % of control

CCOC(=O)c1ccc(NC(=O)Nc2ccc(Cl)cc2[N+](=O)[O-])cc1
inactive: [9] 95 % of control and 92 % of control | [10] 92 % of control | [11] 88 % of control and 92 % of control

Cc1nc2ccccc2c2ccccc12
inactive: [12] 111 % of control | [9] 105 % of control | [10] 111 % of control

CCc1ccc(C(O)C(=O)O)cc1 (centres undefined)
inactive: dose: 75.0 mg/kg/injection, schedule: Q01DX001 (ip), vehicle: acetone 90 % of control | dose: 150.0 mg/kg/injection, schedule: Q01DX001 (ip), vehicle: acetone 94 % of control

COc1ccc2c(c1)c(Cl)c1ccc(Cl)cc1[n+]2[O-]
inactive: [2] 91 % of control | [5] 95 % of control | [7] 107 % of control

CCCCN1CC2CCCC1O2 (centres undefined)
inactive: dose: 50.0 mg/kg/injection, schedule: Q01DX001 (ip), vehicle: saline 97 % of control | [13] 95 % of control

CN1CCCCC1(Cc1ccccc1)Cc1ccccc1
inactive: dose: 50.0 mg/kg/injection, schedule: Q01DX009 (ip), vehicle: saline 102 % of control | dose: 100.0 mg/kg/injection, schedule: Q01DX009 (ip), vehicle: saline 90 % of control | dose: 100.0 mg/kg/injection, schedule: Q04DX003 (ip), vehicle: saline 106 % of control | dose: 200.0 mg/kg/injection, schedule: Q04DX003 (ip), vehicle: saline 95 % of control

O=C(N=C1SCCS1)Nc1cccc(Cl)c1
inactive: [14] 100 % of control | [15] 95 % of control | [16] 110 % of control

O=S=Nc1ccc([N+](=O)[O-])cc1Cl
inactive: [14] 103 % of control | [15] 106 % of control | [16] 100 % of control

N=c1c2n[nH]nc2ncn1O
inactive: dose: 75.0 mg/kg/injection, schedule: Q01DX001 (ip), vehicle: other 92 % of control | dose: 150.0 mg/kg/injection, schedule: Q01DX001 (ip), vehicle: other 110 % of control | dose: 300.0 mg/kg/injection, schedule: Q01DX001 (ip), vehicle: other 101 % of control

O=C(Nc1ccc(Cl)cc1C(F)(F)F)OCCOc1ccccc1Cl
inactive: [1] 91 % of control | [4] 95 % of control | [6] 93 % of control

O=P1(c2ccccc2)OCCO1
inactive: dose: 25.0 mg/kg/injection, schedule: Q01DX009 (ip), vehicle: carboxymethylcellulose (CMC) 97 % of control and 98 % of control | dose: 50.0 mg/kg/injection, schedule: Q01DX009 (ip), vehicle: carboxymethylcellulose (CMC) 100 % of control and 101 % of control | dose: 100.0 mg/kg/injection, schedule: Q01DX009 (ip), vehicle: carboxymethylcellulose (CMC) 94 % of control and 100 % of control and 101 % of control | dose: 100.0 mg/kg/injection, schedule: Q04DX002 (ip), vehicle: carboxymethylcellulose (CMC) 93 % of control and 102 % of control | dose: 100.0 mg/kg/injection, schedule: Q04DX003 (ip), vehicle: carboxymethylcellulose (CMC) 103 % of control | dose: 200.0 mg/kg/injection, schedule: Q04DX002 (ip), vehicle: carboxymethylcellulose (CMC) 96 % of control | dose: 200.0 mg/kg/injection, schedule: Q04DX003 (ip), vehicle: carboxymethylcellulose (CMC) 107 % of control | dose: 400.0 mg/kg/injection, schedule: Q04DX002 (ip), vehicle: carboxymethylcellulose (CMC) 96 % of control | dose: 400.0 mg/kg/injection, schedule: Q04DX003 (ip), vehicle: carboxymethylcellulose (CMC) 97 % of control

O=c1cc(Nc2cccc3cc4ccccc4cc23)[nH]c(=O)[nH]1
inactive: dose: 38.0 mg/kg/injection, schedule: Q01DX001 (ip), vehicle: Klucel (hydroxypropylcellulose) (HPC) 93 % of control | dose: 75.0 mg/kg/injection, schedule: Q01DX001 (ip), vehicle: Klucel (hydroxypropylcellulose) (HPC) 93 % of control | dose: 150.0 mg/kg/injection, schedule: Q01DX001 (ip), vehicle: Klucel (hydroxypropylcellulose) (HPC) 90 % of control

O=[N+]([O-])c1ccccc1S(=O)(=O)C1CC1c1ccccc1 (centres undefined)
inactive: [13] 109 % of control | [17] 102 % of control | [18] 103 % of control

O=[N+]([O-])c1ccccc1C(c1ccc2ccccc2c1O)N1CCOCC1 (centres undefined)
inactive: dose: 100.0 mg/kg/injection, schedule: Q01DX001 (ip), vehicle: saline sonified 86 % of control | dose: 200.0 mg/kg/injection, schedule: Q01DX001 (ip), vehicle: saline sonified 91 % of control | dose: 400.0 mg/kg/injection, schedule: Q01DX001 (ip), vehicle: saline sonified 90 % of control

COC(=O)C(CCc1cc(OC)c(OC)c(OC)c1)C(C(=O)OC)C(=O)OC (centres undefined)
inactive: [19] 87 % of control | [20] 94 % of control | [21] 89 % of control

Cc1c(O)c(CN2CCOCC2)cc(CN2CCOCC2)c1O
inactive: [13] 86 % of control | [17] 90 % of control | [18] 86 % of control

CCC(C)(C)c1cccc2ccccc12
inactive: [9] 96 % of control | [19] 102 % of control | [10] 100 % of control | [20] 106 % of control | [11] 86 % of control | [21] 101 % of control

Cc1cc(C)c(NS(=O)(=O)c2ccc(Cl)cc2)cc1C
inactive: [9] 108 % of control | [10] 106 % of control | [11] 100 % of control

Cc1cccc(NC(=O)Oc2ccc(-c3ccccc3)cc2)c1
inactive: [9] 98 % of control | [14] 95 % of control | [10] 97 % of control | [15] 88 % of control | [11] 97 % of control | [16] 88 % of control

C[N+](C)(C)CCOc1ccc(Cl)cc1
inactive: dose: 12.0 mg/kg/injection, schedule: Q04DX003 (ip), vehicle: Klucel (hydroxypropylcellulose) (HPC) 91 % of control | dose: 25.0 mg/kg/injection, schedule: Q01DX009 (ip), vehicle: Klucel (hydroxypropylcellulose) (HPC) 103 % of control | dose: 25.0 mg/kg/injection, schedule: Q04DX003 (ip), vehicle: Klucel (hydroxypropylcellulose) (HPC) 93 % of control | [12] 106 % of control | dose: 50.0 mg/kg/injection, schedule: Q04DX003 (ip), vehicle: Klucel (hydroxypropylcellulose) (HPC) 96 % of control | [9] 98 % of control

CS(=O)(=O)C1(S(C)(=O)=O)Cc2ccccc2C1
inactive: [3] 91 % of control | dose: 200.0 mg/kg/injection, schedule: Q04DX003 (ip), vehicle: saline with Tween-80 92 % of control | [8] 100 % of control
